One substance from patent US4977139A, “Aqueous elcatonin solution composition” (Toyo Jozo Company, Ltd., priority 1988, dated 1990) can be followed below.

A short description of this series: Severe test against heat (storage at 45° C. for 3 months, residual rate by HPLC). The format is physicochemical. On the procedure: In preparation of 0.1 mM sodium acetate pH buffer of pH 5.5 in Example 2, four kinds of solutions were prepared so that concentration of sodium chloride was 3 mM, 10 mM, 154 mM and 500 mM. Elcatonin was dissolved therein so that elcatonin concentration was 7 μg/ml. Each of the compositions was filled in an ampule in the same manner as in Example 1 to prepare elcatonin injections having four kinds of ionic strength. The resulting elcatonin injections were stored at 45° C. for 3 months and residual rate was obtained under the same conditions as in Test Example 1.

Consider “1-butyric acid-7-(L-2-aminobutyric acid)-26- o L-aspartic acid-27-L-valine-29-L-alanine-calcitonin (salmon) [Elcatonin]”, for which the “Residual rate (%)” value (NaCl 3 mM, ionic strength 0.003, 0.1 mM sodium acetate pH 5.5, elcatonin 7 μg/ml) was found to be 50%; the “Residual rate (%)” value (NaCl 10 mM, ionic strength 0.010, 0.1 mM sodium acetate pH 5.5, elcatonin 7 μg/ml) came out at 79%; the “Residual rate (%)” value (NaCl 154 mM, ionic strength 0.154, 0.1 mM sodium acetate pH 5.5, elcatonin 7 μg/ml) worked out at 98%; the “Residual rate (%)” value (NaCl 500 mM, ionic strength 0.500, 0.1 mM sodium acetate pH 5.5, elcatonin 7 μg/ml) is given as 97%.
